Measured values reported in the NIST ThermoML archive (doi:10.1016/j.tca.2012.02.017).

Experiments:
[1] = molar heat capacity at constant pressure; xn = mol fraction of the nth substance listed; settings: 101 kPa, Liquid, Large sample (1 g) DSC
[2] = molar heat capacity at constant pressure; settings: 101.33 kPa, Liquid, Large sample (1 g) DSC

CC(O)COC(C)COC(C)CO (stereo unspecified) [2-[2-(2-hydroxypropoxy)propoxy]-1-propanol] + O
molar heat capacity at constant pressure [J/K/mol], [1]
Settings | x1 = 0.2 | x1 = 0.4 | x1 = 0.5 | x1 = 0.6 | x1 = 0.8
303.15 K | 158.9 | 234.7 | 271.9 | 309 | 381.4
308.15 K | 160.5 | 237.2 | 275.1 | 312.1 | 385.8
313.15 K | 162.2 | 240 | 278.1 | 315.6 | 389.6
318.15 K | 163.4 | 241.6 | 280.9 | 317.9 | 392.4
323.15 K | 164.9 | 244.5 | 283.2 | 321.6 | 396.3
328.15 K | 166.2 | 246.6 | 286.1 | 324.7 | 400.5
333.15 K | 167.8 | 249.9 | 289.3 | 328.3 | 404.1
338.15 K | 169.1 | 252.2 | 292.5 | 331.3 | 407.6
343.15 K | 170.7 | 254.8 | 295.5 | 334.9 | 411.8
348.15 K | 172.2 | 257.4 | 298.5 | 338.2 | 416
353.15 K | 173.9 | 260.2 | 302.1 | 342.1 | 420.3

OCCCOCCCO [4-oxa-1,7-heptanediol]
[2]
Settings | molar heat capacity at constant pressure [J/K/mol]
303.15 K | 329
313.15 K | 335.9
323.15 K | 342
333.15 K | 348.5
343.15 K | 355.1
353.15 K | 362.6
